Test results as given in US10316050B2, “PT (IV) complexes containing 4,4′-disubstituted-2,2′-bipyridyl and their use in cancer therapy” (THE BOARD OF REGENTS OF THE NEVADA SYSTEM OF HIGHER …, priority 2014, dated 2019).

Columns and labels:
Assay type in all cases: cell-based, human
A549 cells [1] = assay: Cell cycle analysis, propidium iodide flow cytometry, A549; conditions: A549, 25 μM Pt(IV)-4C or 7.5 μM Pt(IV)-5C for 5 hours, analyzed 12 hours post treatment
Protocol: FIG. 10 is a series of plots from a cell cycle analysis of A549 cells (top) and DU145 cells (bottom) cells treated with Pt(IV)-4C and Pt(IV)-5C. A549 cells were treated for 5 hours with control (left), 25 μM Pt(IV)-4C (center), or 7.5 μM Pt(IV)-5C (right), and analyzed 12 hours post treatment. DU145 cells were treated for 1 hour with control (left), 10 μM Pt(IV)-4C (center), or 2.5 μM Pt(IV)-5C (right), and analyzed 12 hours post treatment. Data are representative of three independent experiments.
Cells (˜50 to 60% confluent in 60 mm dishes) were treated as indicated with the platinum compound. After treatment, the floating cells were collected, and both attached and floating cells were washed 2× with PBS. The cells were resuspended in fresh medium and incubated as indicated. The cells were harvested (both the floating and attached cells were collected), counted, and pelleted. The cells were then washed two times with 5 mL PBS, fixed by resuspending in 0.1 mL of PBS and 1 mL of ice-cold 95% ethanol with gentle vortexing. Fixed cells were stored at 4° C. until analysis. For analysis, fixed cells were washed once with 1-2 mL of PBS and centrifuged at 500×g for 5 minutes. The cell pellet was resuspended in 100 μL of a 1.0% Triton X-100 buffer solution, and 100 μL of a 1.0 mg/mL RNAse solution was added and allowed to stand at room temperature for 10-15 minutes. […]

A549 cells [2] = assay: Annexin V/PI flow cytometry, A549; conditions: A549, 25 μM Pt(IV)-4C or 10 μM Pt(IV)-5C for 5 hours, analyzed 12 hours post treatment
Protocol: (§1) FIG. 11 is a series of graphs showing flow cytometry analysis of Annexin V/PI staining in A549 cells (top) and DU145 cells (bottom) treated with Pt(IV)-4C and Pt(IV)-5C. A549 cells were treated for 5 hours with control (left), 25 μM Pt(IV)-4C (center), or 10 μM Pt(IV)-5C (right), and analyzed 12 hours post treatment. DU145 cells were treated for 1 hour with control (left), 10 μM Pt(IV)-4C (center), or 2.5 μM Pt(IV)-5C (right) and analyzed 12 hours post treatment. Q1=PI+, represents necrotic cells; Q2=Annexin V/PI+, representing late apoptotic/necrotic cells; Q3=Annexin V+, representing early apoptotic cells; Q4=AnnexinV/PI−, representing live cells. Data are representative of three independent experiments.
(§2) Cells (˜50 to 60% confluent in 60 mm dishes) were treated as indicated with the platinum compound. After treatment, the floating cells were collected, and both attached and floating cells were washed 2× with PBS. The cells were resuspended in fresh medium and incubated as indicated. The cells were harvested (both the floating and attached cells were collected), counted, and pelleted. The cells were then washed two times with 5 mL of Ca^2+ and Mg^2+ free PBS. The pellets were then washed in 2.0 mL of 1× Annexin-V Binding buffer (BD Bioscience, San Jose, CAS) and centrifuged at 500×g for 5 minutes. […] A quantitative measure of these event shifts was accomplished by gating. […]

A549 cells [3] = assay: Hoechst/PI staining, confocal microscopy, A549
Protocol: Cells (100,000 to 125,000) were seeded into 35 mm dishes and incubated for 48 hours at 37° C. The cells were treated with control, Pt(IV)-4C, or Pt(IV)-5C, and while in the dark, the cells were washed 2× with 1 mL PBS. After washing, 1 mL of a 2 μg/mL Hoechst 33342 and 10 μg/mL PI solution (in PBS) was added, and the cells were incubated for 15 minutes at room temperature. Images were acquired within 5 minutes with a Nikon A1R confocal laser scanning microscopy system (CLSM) mounted on a Nikon Eclipse Ti. At least three random areas on each dish were imaged.
Analysis of Hoechst (Ho) and PI staining by confocal microscopy also was performed to detect cell death. PI stains cells with membrane damage, whereas Ho stains both live and apoptotic cells (although apoptotic cells have more intense Ho fluorescence). […] Additionally, unlike A549, the PI positive cells in Pt(IV)-4C treated cells were higher than Pt(IV)-5C treated cells.

DU145 cells = assay: Annexin V/PI flow cytometry, DU145; conditions: DU145, 10 μM Pt(IV)-4C or 2.5 μM Pt(IV)-5C for 1 hour, analyzed 12 hours post treatment
Protocol: as §1, §2

| Compound | effect on the cell cycle / sub-G1 peak (A549 cells [1]) | Annexin V/PI staining (apoptosis) (A549 cells [2]) | Hoechst (Ho) fluorescence compared to control (A549 cells [3]) | PI fluorescence compared to control (A549 cells [3]) | Annexin V/PI staining (apoptosis) (DU145 cells) |
| --- | --- | --- | --- | --- | --- |
| CC(=O)[O][Pt]([Cl])([Cl])[O]C(C)=O.CCCCCOc1ccnc(-c2cc(OCCCCC)ccn2)c1 [Pt(IV)-5C, [Pt(IV)Cl2(OAc)2(4,4′-dipentoxy-2,2′-bipyridine)]] | decreased percentage of cells in the G1 phase and a corresponding increase in the sub-G1 peak | induce apoptosis | increased Ho fluorescence | no difference | induce apoptosis |
| [Pt(IV)Cl2(OAc)2(4,4′-dibutoxy-2,2′-bipyridine)] [Pt(IV)-4C] | decreased percentage of cells in the G1 phase and a corresponding increase in the sub-G1 peak | induce apoptosis | increased Ho fluorescence | increased PI positive cells | induce apoptosis |
